Reference: patent publication US20250161273A1, “PHARMACEUTICAL COMPOSITION COMPRISING DIPHENYLDIAZOLE DERIVATIVES AND METHODS OF USE” (MODAG GMBH, priority 2022, published 2025)
Like-named read-outs stand apart in the source and are kept apart here.

Assay: phase 1 study in patients with mild to moderate Parkinson's disease (PK, safety)
Assay type: in vivo, human
Settings: PD patients; for AR AUC (accumulation ratio, geometric mean): AUC(0-tau); for Frel AUC(0-24) / Frel Cmax: Day 9 fed vs Day 7 QD fasted; for Cmax: read-out: Cmax (geometric mean); for AUC: read-out: AUC(0-tau) (geometric mean)
From the text: Study Title: A Single Part Study to Assess the Safety, Tolerability, Pharmacokinetics and Pharmacodynamics of Multiple Ascending Oral Doses of anle138b, and to Characterize the Effect of Food on the Pharmacokinetics of anle138b in Patients with Mild to Moderate Parkinson's Disease.
This was a two-center, double-blind, randomised, placebo-controlled study that enrolled twenty two (22) participants in cohorts (i.e. regimens) A-C. All completed the study per protocol. After completion of Cohorts A to C it was decided to add Cohorts D and E of 24 subjects. Cohort D expanded sample size of previous dosing regiments 150 mg and 300 mg QD and Cohort E administration of anle138b 300 mg for 28 days, under non fasted conditions.
Drug product used is described in section 1.3, supra, placebo was vehicle in capsule. Subjects were between 50 and 80 years of age with a diagnosis of idiopathic PD as defined by the Movement Disorders Society criteria (either fulfilling criteria for “Clinically Established PD” or for “Clinically Probable PD”). They had to present with Hoehn and Yahr stage I-III (i.e. able to walk unaided), and stable medication for PD for 1 month prior to inclusion and anticipated over the study period. The subjects were randomly assigned to receive one of three drug regimens, A, B or C, as follows: • Regimen A—150 mg (5×30 mg) anle138b oral capsules or matching placebo QD, for 7 consecutive days in the fasted state, followed by a single administration of 150 mg anle138b oral capsule or matching placebo on Day 9 in the fed state, • Regimen B—300 mg (10×30 mg) anle138b oral capsules or matching placebo QD, for 7 consecutive days in the fasted state, followed by a single administration of 300 mg anle138b oral capsule (10×30 mg capsules) or matching placebo on Day 9 in the fed state, • Regimen C—150 mg (5×30 mg) anle138b oral capsules or matching placebo BID (total 300 mg daily), […]
Primary endpoints provided safety and tolerability information for the test product by assessing: AEs, vital signs, ECGs, physical examinations and laboratory safety tests, and to provide additional safety and tolerability information for the test product taken also in the fed state by assessing: AEs, vital signs, ECGs, physical examinations and laboratory safety tests.
Secondary endpoints provided PK information for the test product in PD patients by assessing plasma exposure under fast and fed conditions.

[1] = Regimen A 150 mg, Day 1, fasted
[2] = Regimen B 300 mg, Day 1, fasted

Brc1cccc(-c2cc(-c3ccc4c(c3)OCO4)n[nH]2)c1 [anle138b, 3-(1,3-benzodioxol-5-yl)-5-(3-bromophenyl)-1H-pyrazole]
AR Cmax (accumulation ratio, geometric mean) (Regimen A 150 mg QD, Day 7): 0.346
AR AUC (accumulation ratio, geometric mean) (Regimen A 150 mg QD, Day 7, tau 24 h): 0.371
T1/2, individual subject values (Regimen A 150 mg QD, Day 7, n = 2): 16.25 h
maximum individual AUC(0-24) as % of the exposure limit in the protocol [1]: ~6.19%
maximum individual Cmax as % of the exposure limit in the protocol [1]: approximately 24.9%
Frel AUC(0-24) (Regimen A 150 mg): 132%
Frel Cmax (Regimen A 150 mg): 104%
Tmax (median) (Regimen B 300 mg QD (row prints fed, title fasted state), Day 7): 1.6 h
AR Cmax (accumulation ratio, geometric mean) (Regimen B 300 mg QD, Day 7): 0.428
AR AUC (accumulation ratio, geometric mean) (Regimen B 300 mg QD, Day 7, tau 24 h): 0.351
maximum individual AUC(0-24) as % of the exposure limit in the protocol [2]: ~8.4%
maximum individual Cmax as % of the exposure limit in the protocol [2]: ~75.8%
Frel AUC(0-24) (Regimen B 300 mg): 109%
Frel Cmax (Regimen B 300 mg): 71.4%
maximum individual Cmax as % of the exposure limit in the protocol (Regimen C 150 mg BID, Day 1, fasted): ~26.4%
maximum individual AUC as % of the exposure limit in the protocol (Regimen C 150 mg BID, Day 1, fasted, AUC(0-12) vs limit based on AUC(0-24)): ~4.94%
AR Cmax (accumulation ratio, geometric mean) (Regimen C 150 mg BID, Day 7): 0.333
AR AUC (accumulation ratio, geometric mean) (Regimen C 150 mg BID, Day 7, tau 12 h): 0.299
safety and tolerability (in words) (doses up to 300 mg): safe and well tolerated
concentration at 3 h (human, CSF, po, 300 mg, multiple QD oral doses of 300 mg, fasted, 3 h post-dose on Day 5, read-out: CSF anle138b concentration (geometric mean)): 0.319 ng/mL
Kp at 3 h (human, CSF/plasma, multiple QD oral doses of 300 mg, fasted, 3 h post-dose on Day 5, read-out: CSF/plasma anle138b concentration ratio (geometric mean)): 0.0024
Cmax (human, plasma, oral, 150 mg, Regimen A 150 mg QD (row prints fed, title fasted state), Day 1): ~462 ng/mL
Tmax (human, plasma, oral, 150 mg, Regimen A 150 mg QD (row prints fed, title fasted state), Day 1, read-out: Tmax (median)): 1.25 h
Tmax (human, plasma, oral, 150 mg, Regimen A 150 mg QD (row prints fed, title fasted state), Day 1, read-out: Tmax (range)): 1 to 1.5 h
AUC (human, plasma, oral, 150 mg, Regimen A 150 mg QD (row prints fed, title fasted state), Day 1, tau 24 h): ~1040 ng·h/mL
concentration at 24 h (human, plasma, oral, 150 mg, Regimen A 150 mg QD (row prints fed, title fasted state), Day 1, tau 24 h, read-out: Ctau (geometric mean)): 3.76 ng/mL
Cmax (human, plasma, oral, 150 mg, Regimen A 150 mg QD (row prints fed, title fasted state), Day 7): ~160 ng/mL
Tmax at 7 days (human, plasma, oral, 150 mg, Regimen A 150 mg QD (row prints fed, title fasted state), Day 7, read-out: Tmax (median)): 1 h
Tmax at 7 days (human, plasma, oral, 150 mg, Regimen A 150 mg QD (row prints fed, title fasted state), Day 7, read-out: Tmax (range)): 1 to 2 h
AUC (human, plasma, oral, 150 mg, Regimen A 150 mg QD (row prints fed, title fasted state), Day 7, tau 24 h): ~388 ng·h/mL
concentration at 24 h (human, plasma, oral, 150 mg, Regimen A 150 mg QD (row prints fed, title fasted state), Day 7, tau 24 h, read-out: Ctau (geometric mean)): 1.86 ng/mL
half-life at 7 days (human, plasma, oral, 150 mg, Regimen A 150 mg QD, Day 7, n = 2, read-out: T1/2, individual subject values (converted)): 1030 min
half-life (human, plasma, oral, 150 mg, Regimen A 150 mg single dose on Day 9, fed state, n = 3, read-out: T1/2 (geometric mean) (converted)): 954 min
AUC(0-t) (human, plasma, oral, 150 mg, Regimen A 150 mg single dose on Day 9, fed state, read-out: AUC(0-24) (geometric mean)): 513 ng·h/mL
AUC(0-t) (human, plasma, oral, 150 mg, Regimen A 150 mg single dose on Day 9, fed state, read-out: AUC(0-last) (geometric mean)): 542 ng·h/mL
concentration at 24 h (human, plasma, oral, 150 mg, Regimen A 150 mg single dose on Day 9, fed state, read-out: C24 (geometric mean)): 1.87 ng/mL
Cmax (human, plasma, oral, 150 mg, Regimen A 150 mg single dose on Day 9, fed state): 167 ng/mL
Tmax (human, plasma, oral, 150 mg, Regimen A 150 mg single dose on Day 9, fed state, read-out: Tmax (median)): 3 h
